In the OligoGym collection one finds target mRNA inhibition data, which are given here for 31 sequences.

Several values for one entry are separate records, joined by “and”; a condition that tells them apart may be missing. Equal entries are not always repeated. After the bases stand the sugars from the 5' end (letter, count) and the backbone: PS all phosphorothioate, else s phosphorothioate and o phosphodiester by linkage. Methylation of C is not given here. e = 2'-O-(2-methoxyethyl) (MOE); k = constrained ethyl (cEt); d = 2'-deoxy (DNA)

The target in the data set is KRAS. As to conditions: ASO.

On to TAATTACTTATGCAGA (sugars k3 d10 k3, PS), for which the target mRNA inhibition (A431, 2 µM) was 17%. Still for that read-out and setting: under “CCAGTGTTAAGAGAAC (sugars kkddddddddkekekk, PS)” stands 53%. For the sequence TTAGTGATTAGGTCAA (sugars k3 d10 k3, PS), the target mRNA inhibition is 32% (A431, 0.185 µM); 56% (A431, 0.556 µM); 68% (A431, 1.667 µM); 59% and 51% and 52% (A431, 2 µM); 82% (A431, 5 µM). Regarding “AGGAGTCTTTATAGTA (sugars kddddddddddkekek, PS)”, the target mRNA inhibition (A431, 2 µM) is 31%. Turning to CAGTATTAACACAGAA (sugars k3 d10 k3, PS), the target mRNA inhibition (A431, 2 µM) is 7%. The same measure, in the same setting: to CATTGCTAGTTCAAAA (sugars k3 d10 k3, PS) belongs 9%; to ACTCTCTATGAAAGCT (sugars k3 d10 k3, PS), 29%; to GACTAATAGCAGTGGA (sugars k3 d10 k3, PS), 52% and 62%. On the same count and under the same terms, under “AGGAGTCTTTATAGTA (sugars kkkddddddddkekek, PS)” stands 22%. The same measure, in the same setting: to AGTGATTAGGTCAAAT (sugars k3 d10 k3, PS) belongs 23%; to “AGTGTGACTCAGTTAA (sugars kkkddddddddkekek, PS)”, 29%; to TTCTGATGTGACTCAG (sugars k3 d10 k3, PS), 26%. As to “TTAGTGATTAGGTCAA (sugars kddddddddddkekek, PS)”, the target mRNA inhibition (A431, 2 µM) is 12%. In turn, ATTACTTATGCAGAGA (sugars k3 d10 k3, PS) registered a target mRNA inhibition (A431, 2 µM) of 60%. Regarding CCAGTATTAACACAGA (sugars k3 d10 k3, PS), where the note is “A431, 2 µM”, the target mRNA inhibition stood at 37%. With “GGTGTAACATAGGTTA (sugars kddddddddddkekek, PS)”, the target mRNA inhibition was 15% (A431, 0.185 µM); 39% (A431, 0.556 µM); 62% (A431, 1.667 µM); 64% (A431, 2 µM); 80% (A431, 5 µM). For the sequence GATTTGTCAGCAGGAC (sugars k3 d10 k3, PS), the target mRNA inhibition runs as follows: (A431, 0.037 µM) 68%; (A431, 2 µM) 47%; (A431, 5 µM) 96% and 93%; (NCI-H460, 0.037 µM) 60.1%. “GTCCAGTGATACTTTC (sugars kkkdddddddddkeke, PS)”: the target mRNA inhibition (A431, 2 µM) is 33%. On the same count and under the same terms, under GCAAGATGACACTAAT (sugars k3 d10 k3, PS) stands 30%; under AAGATGGTGTAACATA (sugars k3 d10 k3, PS), 30%; under GTGTAACATAGGTTAA (sugars k3 d10 k3, PS), 30%. Consider GCTAATAATTTAGTGT (sugars k3 d10 k3, PS), for which the target mRNA inhibition (A431, 2 µM) was determined as 18%.

Take “GTGTTTATGCAATGTT (sugars kkdddddddddkekek, PS)”: the target mRNA inhibition amounted to 22% (A431, 0.185 µM); 54% (A431, 0.556 µM); 77% (A431, 1.667 µM); 65% (A431, 2 µM); 83% (A431, 5 µM). For the setting “A431, 2 µM”, GCAGTGTGACTCAGTT (sugars k3 d10 k3, PS) yielded a target mRNA inhibition of 48%.

With TACTTATGCAGAGAAA (sugars k3 d10 k3, PS), the target mRNA inhibition (A431, 2 µM) came out at 0%. On the same count and under the same terms, to “GATTGTGCTGAGCTTG (sugars kkddddddddddkeke, PS)” belongs 19%; to “TTAGTGATTAGGTCAA (sugars kkkdddddddddkeke, PS)”, 32%. Same read-out and setting: to “AGGAGTCTTTATAGTA (sugars kkkddddddddkdkdk, PS)” belongs 30%; to “ACCATTCAAAGTTCAC (sugars kddddddddddkekek, PS)”, 18%; to “TCCAGTGATACTTTCA (sugars kkdddddddddkekek, PS)”, 37%. Still for that read-out and setting: to “ACCATTCAAAGTTCAC (sugars kkkdddddddddkeke, PS)” belongs 30%.
